# Experimental data reported in ChEMBL document CHEMBL6177955, “Design, synthesis and biological evaluation of Golgi-targeting anion transporters as inducers of Golgiphagy and apoptosis in cancer cells” (Eur J Med Chem, 2025).
# Calls of active or inactive are those of the source. The calls are words filed in the database; no cut-off is given here.
# Tests used:
# [1] = system: HepG2; assay: Antitumor activity against human HepG2 cells xenografted mouse model assessed as reduction in tumor growth inhibition at 1 mg/kg, ip administered once every 2 days for 21 days relative to control; format: functional; details: HepG2, 504 h, time 21 day, read-out: TGI
# [2] = system: HCT-8; assay: Antiproliferative activity against human HCT-8 cells by MTT assay; format: functional, cell-based
# [3] = system: HepG2; assay: Suppression of Golgi structural and functional protein expression in human HepG2 cells assessed as decrease in GM130 protein expression at 5 to 20 uM measured after 48 hrs incubation by Western blot analysis; format: cell-based; details: dose 5-20 µM
# [4] = Toxicity in mouse xenografted with human HepG2 cells assessed as blood urea nitrogen (BUN) at 5 to 10 mg/kg, ip administered once every 2 days for 21 days; format: organism-based; details: in vivo, 504 h, dose 5-10 mg/kg, time 21 day
# [5] = system: HepG2; assay: Effect on dysregulation mediated autophagy in human HepG2 cells assessed as increase in p62 marker expression at 5 to 20 uM measured after 48 hrs incubation by Western blot analysis; format: functional, cell-based; details: dose 5-20 µM
# [6] = system: HepG2; assay: Induction of apoptosis in human HepG2 cells assessed as necrotic cells at 10 uM measured after 24 hrs incubation by Propidium iodide/Annexin V-FITC analysis (reference value: 1.14%); format: functional
# [7] = Toxicity in mouse xenografted with human HepG2 cells assessed as body weight change at 5 to 10 mg/kg, ip administered once every 2 days for 21 days; format: organism-based; details: in vivo, 504 h, dose 5-10 mg/kg, time 21 day
# [8] = system: Lipid bilayer; assay: Vesicular anionophoric activity in large unilamellar vesicle membrane derived from egg-yolk L-alpha-phosphatidylcholine assessed as induction of relative efflux of chloride ions in presence of lithium (Li+) measured up to 300 seconds by using chloride-selective electrode; details: time <= 300.0 sec
# [9] = system: HepG2; assay: Antitumor activity against human HepG2 cells xenografted mouse model assessed as reduction in tumor weight at 5 to 10 mg/kg, ip administered once every 2 days for 21 days; format: functional, organism-based; details: dose 5-10 mg/kg, time 21.0 day
# [10] = Toxicity in mouse xenografted with human HepG2 cells assessed as histopathological changes in spleen at 5 to 10 mg/kg, ip administered once every 2 days for 21 days by H and E staining based analysis; format: organism-based; details: in vivo, 504 h, dose 5-10 mg/kg, time 21 day
# [11] = system: HepG2; assay: Induction of autophagosome formation in human HepG2 cells assessed as green fluorescence in mitochondria by measuring pearson co-localization at 10 uM measured after 12 hrs incubation by mCherry-LC3B assay; format: functional
# [12] = system: MCF7; assay: Antiproliferative activity against human MCF7 cells by MTT assay; format: functional, cell-based
# [13] = system: HepG2; assay: Induction of apoptosis in human HepG2 cells assessed as viable cells at 10 uM measured after 24 hrs incubation by Propidium iodide/Annexin V-FITC analysis (reference value: 90.2%); format: functional; details: read-out: Activity
# [14] = system: HepG2; assay: Cell cycle arrest in human HepG2 cells assessed as accumulation of cells at G2/M phase at 10 uM measured after 24 hrs incubation by flow cytometric analysis; format: functional
# [15] = system: HT-29; assay: Antiproliferative activity against human HT-29 cells by MTT assay; format: functional, cell-based
# [16] = system: HepG2; assay: Cytotoxicity against human HepG2 cells assessed as cell viability at 1 to 20 uM measured after 24 hrs incubation in presence of chloride anions; format: functional, cell-based; details: dose 1-20 µM
# [17] = system: Lipid bilayer; assay: Vesicular anionophoric activity in Bulky nitrobenzene membrane assessed as induction of relative efflux of chloride ions measured up to 100 hrs by using chloride-selective electrode
# [18] = Toxicity in mouse xenografted with human HepG2 cells assessed as alanine aminotransferase (ALT) in serum at 5 to 10 mg/kg, ip administered once every 2 days for 21 days; format: organism-based; details: in vivo, 504 h, dose 5-10 mg/kg, time 21 day
# [19] = system: HepG2; assay: Induction of chloride ion influx in human HepG2 cells assessed as increase in intracellular chloride anions at 5 to 20 uM measured after 12 hrs incubation by chloride-sensitive dye MQAE-based CLSM imaging analysis; format: functional, cell-based; details: dose 5-20 µM
# [20] = system: HepG2; assay: Induction of apoptosis in human HepG2 cells assessed as reduction in Golgi-associated apoptotic proteins (GAAPs) expression measured after 24 hrs by Western blot analysis; format: functional, cell-based
# [21] = system: HepG2; assay: Induction of apoptosis in human HepG2 cells assessed as early apoptotic cells at 10 uM measured after 24 hrs incubation by Propidium iodide/Annexin V-FITC analysis (reference value: 2.90%); format: functional
# [22] = system: Lipid bilayer; assay: Vesicular anionophoric activity in large unilamellar vesicle membrane derived from egg-yolk L-alpha-phosphatidylcholine assessed as induction of relative efflux of chloride ions in presence of cesium (Cs+) measured up to 300 seconds by using chloride-selective electrode; details: time <= 300.0 sec
# [23] = Toxicity in mouse xenografted with human HepG2 cells assessed as lactate dehydrogenase (LDH) at 5 to 10 mg/kg, ip administered once every 2 days for 21 days; format: organism-based; details: in vivo, 504 h, dose 5-10 mg/kg, time 21 day
# [24] = system: HepG2; assay: Induction of apoptosis in human HepG2 cells assessed as late apoptotic cells at 5 uM measured after 24 hrs incubation by Propidium iodide/Annexin V-FITC analysis (reference value: 5.71%); format: functional
# [25] = system: Lipid bilayer; assay: Vesicular anionophoric activity in large unilamellar vesicle membrane derived from egg-yolk L-alpha-phosphatidylcholine assessed as induction of relative efflux of chloride ions measured up to 300 seconds by using chloride-selective electrode
# [26] = system: Lipid bilayer; assay: Vesicular anionophoric activity in large unilamellar vesicle membrane derived from egg-yolk L-alpha-phosphatidylcholine assessed as induction of relative efflux of chloride ions in presence of sodium (Na+) measured up to 300 seconds by using chloride-selective electrode; details: time <= 300.0 sec
compound,measurement,setting,value
NS(=O)(=O)c1ccc(NC(=O)CCCCCNc2c(Nc3cc(C(F)(F)F)cc(C(F)(F)F)c3)c(=O)c2=O)cc1,inhibition in vivo at 1 mg/kg,[1],41%
same,IC50,[2],> 50 µM
same,Activity,[3],Active
same,Activity,[4],Non-toxic
same,Activity,[5],Active
same,Activity,[6],5.17%
same,Activity,[7],Non-toxic
same,Activity,[8],Active
same,Activity,[9],Active
same,Activity,[10],Non-toxic
same,Activity,[11],0.23
same,IC50,[12],12.7 µM
same,viability at 10 µM,[13],50%
same,Activity,[14],17.16%
same,IC50,[15],> 50 µM
same,Activity,[16],Active; Cytotoxicity Enhanced In Presence Of Chloride Anions
same,Activity,[17],Active; Compound Exhibit Anion Transport Activity Most Probably Through Carrier Mechanism
same,Activity,[18],Non-toxic
same,Activity,[19],Active
same,Activity,[20],Dose-dependent-effect
same,Activity,[21],20.2%
same,Activity,[22],Active
same,Activity,[23],Non-toxic
same,Activity,[24],12.9%
same,EC50,[25],1.53 mol%
same,Activity,[26],Active
